Measured values taken from PubChem BioAssay (NCI).
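The concentration for 50% growth inhibition is given as GI50. Definition used: TGI = concentration required for complete inhibition of growth.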

How the values were obtained:
Test in all cases: DTP human tumour cell line panel, 384-well format
SNB-75 CNS = tested on: SNB-75 CNS
SNB-19 CNS = tested on: SNB-19 CNS
HS 578T breast = tested on: HS 578T breast
SK-MEL-5 melanoma = tested on: SK-MEL-5 melanoma
RXF 393 renal = tested on: RXF 393 renal
HOP-62 NSCLC = tested on: HOP-62 NSCLC
NCI-H522 lung = tested on: NCI-H522 lung
SF-268 CNS = tested on: SF-268 CNS
RPMI-8226 leukemia = tested on: RPMI-8226 leukemia
CAKI-1 renal = tested on: CAKI-1 renal
MDA-MB-231 breast = tested on: MDA-MB-231 breast
SK-OV-3 ovarian = tested on: SK-OV-3 ovarian
EKVX NSCLC = tested on: EKVX NSCLC
OVCAR-8 ovarian = tested on: OVCAR-8 ovarian
IGROV1 ovarian = tested on: IGROV1 ovarian
SW-620 colon = tested on: SW-620 colon
SF-295 CNS = tested on: SF-295 CNS
PC-3 prostate = tested on: PC-3 prostate
HT29 colon = tested on: HT29 colon
COLO 205 colon = tested on: COLO 205 colon
NCI/ADR-RES ovarian = tested on: NCI/ADR-RES ovarian
786-0 renal = tested on: 786-0 renal
SR leukemia = tested on: SR leukemia
SN12C renal = tested on: SN12C renal
NCI-H226 lung = tested on: NCI-H226 lung
NCI-H23 lung = tested on: NCI-H23 lung
NCI-H322M lung = tested on: NCI-H322M lung
KM12 colon = tested on: KM12 colon
SK-MEL-28 melanoma = tested on: SK-MEL-28 melanoma
HCC-2998 colon = tested on: HCC-2998 colon
MALME-3M melanoma = tested on: MALME-3M melanoma
NCI-H460 NSCLC = tested on: NCI-H460 NSCLC
UACC-257 melanoma = tested on: UACC-257 melanoma
MDA-MB-435 melanoma = tested on: MDA-MB-435 melanoma
SF-539 CNS = tested on: SF-539 CNS
A498 renal = tested on: A498 renal
OVCAR-3 ovarian = tested on: OVCAR-3 ovarian
ACHN renal = tested on: ACHN renal
UO-31 renal = tested on: UO-31 renal
HOP-92 NSCLC = tested on: HOP-92 NSCLC
M14 melanoma = tested on: M14 melanoma
DU-145 prostate = tested on: DU-145 prostate
UACC-62 melanoma = tested on: UACC-62 melanoma
OVCAR-4 ovarian = tested on: OVCAR-4 ovarian
HCT-15 colon = tested on: HCT-15 colon
OVCAR-5 ovarian = tested on: OVCAR-5 ovarian
MCF7 breast = tested on: MCF7 breast
HL-60(TB) leukemia = tested on: HL-60(TB) leukemia
A549 NSCLC = tested on: A549 NSCLC
CCRF-CEM leukemia = tested on: CCRF-CEM leukemia
TK-10 renal = tested on: TK-10 renal
K-562 leukemia = tested on: K-562 leukemia
MOLT-4 leukemia = tested on: MOLT-4 leukemia
MDA-MB-468 breast = tested on: MDA-MB-468 breast
U251 glioblastoma = tested on: U251 glioblastoma
LOX IMVI melanoma = tested on: LOX IMVI melanoma
BT-549 breast = tested on: BT-549 breast
T-47D breast = tested on: T-47D breast

## COc1cc(CCc2cc(NC(=O)c3ccc(N4C[C@@H](C)N[C@@H](C)C4)cc3)n[nH]2)cc(OC)c1
SNB-75 CNS
  GI50: 4.55 µM
  TGI: 17.1 µM
SNB-19 CNS
  GI50: 15.3 µM
  TGI: 28.8 µM
HS 578T breast
  GI50: 2.19 µM
  TGI: 4.58 µM
SK-MEL-5 melanoma
  GI50: 1.59 µM
  TGI: 2.95 µM
RXF 393 renal
  GI50: 2.13 µM
  TGI: 5.28 µM
HOP-62 NSCLC
  GI50: 5.65 µM
  TGI: 17.3 µM
NCI-H522 lung
  GI50: 5.63 µM
  TGI: 17.9 µM
SF-268 CNS
  GI50: 5.42 µM
  TGI: 18.2 µM
RPMI-8226 leukemia
  GI50: 2.26 µM
  TGI: 4.41 µM
CAKI-1 renal
  GI50: 3.65 µM
  TGI: 14 µM
MDA-MB-231 breast
  GI50: 5.81 µM
  TGI: 18.3 µM
SK-OV-3 ovarian
  GI50: 2.99 µM
  TGI: 11 µM
EKVX NSCLC
  GI50: 10.4 µM
  TGI: 22.2 µM
OVCAR-8 ovarian
  GI50: 9.65 µM
  TGI: 21.5 µM
IGROV1 ovarian
  GI50: 3.8 µM
  TGI: 14 µM
SW-620 colon
  GI50: 4.21 µM
  TGI: 15.3 µM
SF-295 CNS
  GI50: 4.91 µM
  TGI: 15.5 µM
PC-3 prostate
  GI50: 4.91 µM
  TGI: 16.1 µM
HT29 colon
  GI50: 1.85 µM
  TGI: 3.72 µM
COLO 205 colon
  GI50: 2.31 µM
  TGI: 5.36 µM
NCI/ADR-RES ovarian
  GI50: 17.5 µM
  TGI: 31.5 µM
786-0 renal
  GI50: 3.07 µM
  TGI: 9.35 µM
SR leukemia
  GI50: 1.8 µM
  TGI: 3.21 µM
SN12C renal
  GI50: 2.54 µM
  TGI: 10.1 µM
NCI-H226 lung
  GI50: 1.49 µM
  TGI: 10.9 µM
NCI-H23 lung
  GI50: 2.42 µM
  TGI: 6.77 µM
NCI-H322M lung
  GI50: 5.5 µM
  TGI: 17.4 µM
KM12 colon
  GI50: 0.0516 µM
  TGI: 1.46 µM
SK-MEL-28 melanoma
  GI50: 2.33 µM
  TGI: 5.37 µM
HCC-2998 colon
  GI50: 3.82 µM
  TGI: 12.8 µM
MALME-3M melanoma
  GI50: 2.03 µM
  TGI: 4.37 µM
NCI-H460 NSCLC
  GI50: 3.39 µM
  TGI: 10.9 µM
UACC-257 melanoma
  GI50: 1.53 µM
  TGI: 2.9 µM
MDA-MB-435 melanoma
  GI50: 3.26 µM
  TGI: 10.8 µM
SF-539 CNS
  GI50: 1.69 µM
  TGI: 4.18 µM
A498 renal
  GI50: 3.66 µM
  TGI: 13.7 µM
OVCAR-3 ovarian
  GI50: 11.9 µM
  TGI: 24.3 µM
ACHN renal
  GI50: 4.46 µM
  TGI: 15.9 µM
UO-31 renal
  GI50: 11.1 µM
  TGI: 23.9 µM
HOP-92 NSCLC
  GI50: 3.61 µM
  TGI: 15 µM
M14 melanoma
  GI50: 1.71 µM
  TGI: 3.35 µM
DU-145 prostate
  GI50: 5.91 µM
  TGI: 18 µM
UACC-62 melanoma
  GI50: 3.07 µM
  TGI: 10.7 µM
OVCAR-4 ovarian
  GI50: 6.69 µM
  TGI: 19.7 µM
HCT-15 colon
  GI50: 3.39 µM
  TGI: 11.2 µM
OVCAR-5 ovarian
  GI50: 3.22 µM
  TGI: 9.57 µM
MCF7 breast
  GI50: 3.06 µM
  TGI: 10.9 µM
HL-60(TB) leukemia
  GI50: 1.83 µM
  TGI: 3.28 µM
A549 NSCLC
  GI50: 4.71 µM
  TGI: 15.7 µM
CCRF-CEM leukemia
  GI50: 2.33 µM
  TGI: 4.13 µM
TK-10 renal
  GI50: 11.8 µM
  TGI: 24.2 µM
K-562 leukemia
  GI50: 2.5 µM
  TGI: 4.83 µM
MOLT-4 leukemia
  GI50: 1.86 µM
  TGI: 3.36 µM
MDA-MB-468 breast
  GI50: 3.46 µM
  TGI: 6.61 µM
U251 glioblastoma
  GI50: 6.52 µM
  TGI: 19 µM
LOX IMVI melanoma
  GI50: 1.9 µM
  TGI: 3.58 µM
BT-549 breast
  GI50: 1.95 µM
  TGI: 8.13 µM
T-47D breast
  GI50: 11.1 µM
  TGI: 23.2 µM
